Earlier results as cited in article PMC8004929, “Whole-Body Pharmacokinetics and Physiologically Based Pharmacokinetic Model for Monomethyl Auristatin E (MMAE)” (Journal of Clinical Medicine, 2021).
Square brackets hold non-standard residues; d marks the D form. Peptide text beside a SMILES is read from it. * marks the point of attachment. Dolaproine = CO[C@@H]([C@@H]1CCCN1)[C@@H](C)C(=O)O; Dil = CC[C@H](C)[C@H](NC)[C@@H](CC(=O)O)OC; X1 = C[C@@H](N*)[C@@H](O)c1ccccc1; NMeV = CN[C@H](C(=O)O)C(C)C

Tested on: P-glycoprotein
Conditions: cited from earlier work
From the text: Concentration data were not obtained for gastrointestinal tracts and thymus, and thus, an assumption was made when calculating KP values for these tissues based on the result of a quantitative whole-body autoradiography study of trastuzumab-vc-MMAE in rats. The study observed persistent MMAE radioactivity in tissues with rapidly dividing cells such as GI epithelia, bone marrow, spleen, and thymus. Accordingly, apparent KP in GI tracts and thymus were assumed to be the same as in spleen, and they were adjusted for the fractional cellular volume of each tissue. KP values were >1 in all tis ... || The PBPK model of MMAE presented here can further be used to assess drug–drug interactions of MMAE containing ADCs. In vivo and in vitro studies indicate that MMAE is a substrate of CYP3A and P-glycoprotein [34]. As such, the polymorphism of CYP3A and P-glycoprotein may affect the PK of MMAE, and consequently the efficacy and toxicity of MMAE-conjugated ADCs. As such, the MMAE PBPK model can serve as a tool to explore drug interactions of ADCs.

For `CC[C@H](C)[C@@H]([C@@H](CC(=O)N1CCC[C@H]1[C@H](OC)[C@@H](C)C(=O)N[C@H](C)[C@@H](O)c1ccccc1)OC)N(C)C(=O)[C@@H](NC(=O)[C@@H](NC)C(C)C)C(C)C` [MMAE, Monomethyl auristatin E] (H-[NMeV]V[Dil][Dolaproine]-X1), which “substrate of P-glycoprotein” value is on record?
The value was “substrate”.
